“Also recorded” adds a separate entry of the source.

The term IC50 denotes the concentration at which inhibition is half-maximal.

Test [1] relates to PMN within the peritoneal cavity. The test can be described thus: Zymosan-induced peritoneal inflammation, PMN accumulation. It is filed as in vivo, mice (Balb/c). As to conditions: mice. As to the method:
Mice (Balb/c males, 4-5 weeks old, 20-24 grams) were injected i.p. with 1 ml of 3% thioglycollate broth (lot #622462, Clinical Standard Laboratories, Inc., Rancho Dominguez, Calif.) left panel, or 0.5 mg of zymosan (Sigma) in 1 ml of sterile, pyrogen-free saline (Abbott Laboratories, North Chicago, Ill.), (FIG. 4, right panel). Control animals were injected i.p. with 1 ml of sterile pyrogen-free saline. After 40 and 80 min the animals received i.v. injections of 0.2 ml of sterile saline with or without InsP6 (total of 80 μmol/kg) or inositol (400 μmol/kg). Mice were sacrificed at 120 min and PMN within the peritoneal cavity were collected by lavage with 10 ml of ice-cold PBS containing 10 U/ml of heparin. After red blood cell lysis, the cells were counted in a hemocytometer (2 separate counts per sample, in triplicate). The percentage of PMN was assessed by counting cytospin preparations (two counts per slide, 300 cells per count) stained with Dif-Quick stain (Baxter, McGaw Park, Ill). Data are expressed as the mean ±s.d. of three separate experiments, with 5-6 animals per group in each experiment except for the group injected with saline i.p. that was constituted by 2 animal per experiment. […]

Another test deals with peripheral blood PMN. As to the kind of experiment: Number of peripheral blood PMN. As to conditions: in vivo. From the text:
In the first model, mice were given intraperitoneal (i.p.) injections of 3% thioglycollate broth (FIG. 4, left panel) which results in an accumulation of PMN, the early phase of which is thought to depend in large part on L-(Lewinsohn, D. M., et al., J. Immunol., 138:4313, 1987; Watson, S. R., et al., Nature, 349:164, 1991), and P-selectin (Mulligan, M. S., et al., J. Clin. Invest., 90:1600, 1992). […] In a rat model of lung inflammation involving intratracheal instillation of endotoxin (Ulich, T. R., et al., Am. J. Pathol, 138:1485, 1991), InsP6 (i.v. injections at 2 and 4 hours, 40 μmol/kg total) reduced the number of PMN recovered in broncho-alveolar lavage fluid at 6 hours (59±8% inhibition, 2 experiments). The number of peripheral blood PMN was not modified by InsP6 treatment.

Test [2] relates to PMN within the peritoneal cavity. As to the kind of experiment: Thioglycollate-induced peritoneal inflammation, PMN accumulation. The test is classed as in vivo, mice (Balb/c). The note with it: mice.
For test [3], the target named is T1, P-selectin-lg fusion protein (Homo sapiens, UniProt P16109).
T1 construct: Each selectin-lg contains the lectin domain, epidermal growth factor domain, and one (L-selectin-lg), two (P-selectin-lg) or six (E-selectin-lg) complement regulatory repeats; made in house
As to the kind of experiment: Competition ELISA: binding of P-selectin-Ig to immobilized BSA-sLe^x. As to conditions: for IC50: read-out: IC50, P-selectin binding. From the text:
(§1) Selectin-lg fusion proteins are recombinant chimeric molecules containing extracellular regions of selectins coupled to the hinge, CH2, and CH3 regions of human IgG1 (Aruffo, A., et al., Cell, 67:35, 1991; Walz, G., et al., Science, 250:1132, 1990). Each selectin-lg contains the lectin domain, epidermal growth factor domain, and one (L-selectin-lg), two (P-selectin-lg) or six (E-selectin-lg) complement regulatory repeats of the parent molecules. DNAs encoding selectin-Ig inserted in pCDM7 allowed transient expression of recombinant proteins in COS cells as previously described (Seed, B., et al., Proc. Natl. Acad. Sci., U.S.A., 84:3365, 1987; Aruffo, A., Current Protocols In Molecular Biology, eds. Ausubel, F. M., et al, 16:13.1, Greene Publishing Associates and Wiley-lnterscience, New York, N.Y., 1992). These DNAs were also ligated into pNUT (Palmiter, R. D., et al, Cell, 50:435, 1987) for amplification and stable expression in BHK cells. The fusion proteins were affinity purified from culture media using protein A (Pierce Chemical Company, Rockford, Ill.) or protein G (Pharmacia, Piscataway, N.J.) Sepharose, as previously described (Aruffo, A., et al., Cell, 67:35, 1991; Aruffo, A., Current Protocols In Molecular Biology, eds. Ausubel, F. M., et al, supra, 1992). Competition binding ELISAs using P- and E-selectin-lg were performed essentially as described (Nelson, R. M., et al., J. Clin. Invest., 91:1157, 1993), except that the assay buffer was 20 mM HEPES pH 7.4, 150 mM NaCl, 2 mM CaCl2, and 0.25 mM thimerosal, containing 10 mg/ml BSA, protease-free, (Miles Inc., Kankakee, Ill.). Selectin concentrations were from 10 to 30 nM. […] To increase L-selectin binding, an assay similar to that previously described was used (Foxall, C., et al., J. Cell Biol., 117:895, 1992), in which the L-selectin-lg (10-20 nM) was allowed to form aggregates with HRP-conjugated anti-lg antibody for 30 minutes prior to addition of inositols and incubation on the BSA-sLe^x -coated plate. IC50 values were calculated by fitting binding data to the equation: fraction of maximal binding=IC50 […] using nonlinear least squares analysis software (Origin, Microcal Inc, Northampton, Mass.). InsP6 (dodecasodium salt), InsS6 (hexapotassium salt), myo-inositol 1 monophosphate (cyclohexylammonium salt), and myo-inositol were from Sigma Chemical Company (St. Louis, Mo.). Stock solutions were prepared daily in 0.9% NaCl and sterilized by 0.22 μm filtration. InsP6 solutions were adjusted at pH 7.4 with HCl.
(§2) L-, P-, or E-selectin-lg fusion proteins were incubated for 2-3 hours on microtiter plates coated with the neoglycoprotein BSA-sLe^x, the plates washed, and bound selectin-lg was detected using a peroxidase-conjugated antibody directed against the lg portion and a chromogenic substrate. To determine blocking activity, solution-phase lnsP6 (.circle-solid.), InsS6 (.largecircle.), or inositol (.box-solid.) at the indicated concentrations were added to the solutions containing selectin-Ig fusion proteins prior to transfer to microtiter plates (competition ELISA).
For orientation: ELISA stands for enzyme-linked immunosorbent assay.

For test [4], the target named is T2, E-selectin-lg fusion protein (Homo sapiens, UniProt P16581).
T2 construct: Each selectin-lg contains the lectin domain, epidermal growth factor domain, and one (L-selectin-lg), two (P-selectin-lg) or six (E-selectin-lg) complement regulatory repeats; made in house
The test can be described thus: Competition ELISA: binding of E-selectin-Ig to immobilized BSA-sLe^x. As to conditions: BSA-sLe^x competition ELISA.
Description: as §1, §2

T1 sequence (P16109 with tags, fused parts or gaps limits assumed): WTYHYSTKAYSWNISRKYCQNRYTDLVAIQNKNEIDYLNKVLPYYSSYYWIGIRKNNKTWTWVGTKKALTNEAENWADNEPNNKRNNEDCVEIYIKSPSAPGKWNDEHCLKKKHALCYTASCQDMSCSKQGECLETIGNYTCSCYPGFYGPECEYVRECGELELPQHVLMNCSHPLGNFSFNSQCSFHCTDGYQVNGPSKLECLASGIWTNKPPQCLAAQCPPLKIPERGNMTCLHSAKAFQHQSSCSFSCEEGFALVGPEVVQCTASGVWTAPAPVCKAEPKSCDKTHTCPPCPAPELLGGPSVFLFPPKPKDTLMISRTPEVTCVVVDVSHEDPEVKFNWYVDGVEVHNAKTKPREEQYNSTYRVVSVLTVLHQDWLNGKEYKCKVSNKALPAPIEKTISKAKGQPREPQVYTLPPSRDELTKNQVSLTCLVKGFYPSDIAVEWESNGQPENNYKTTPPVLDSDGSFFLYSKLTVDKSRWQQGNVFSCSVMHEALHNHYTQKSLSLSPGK
T2 sequence (P16581 with tags, fused parts or gaps limits assumed): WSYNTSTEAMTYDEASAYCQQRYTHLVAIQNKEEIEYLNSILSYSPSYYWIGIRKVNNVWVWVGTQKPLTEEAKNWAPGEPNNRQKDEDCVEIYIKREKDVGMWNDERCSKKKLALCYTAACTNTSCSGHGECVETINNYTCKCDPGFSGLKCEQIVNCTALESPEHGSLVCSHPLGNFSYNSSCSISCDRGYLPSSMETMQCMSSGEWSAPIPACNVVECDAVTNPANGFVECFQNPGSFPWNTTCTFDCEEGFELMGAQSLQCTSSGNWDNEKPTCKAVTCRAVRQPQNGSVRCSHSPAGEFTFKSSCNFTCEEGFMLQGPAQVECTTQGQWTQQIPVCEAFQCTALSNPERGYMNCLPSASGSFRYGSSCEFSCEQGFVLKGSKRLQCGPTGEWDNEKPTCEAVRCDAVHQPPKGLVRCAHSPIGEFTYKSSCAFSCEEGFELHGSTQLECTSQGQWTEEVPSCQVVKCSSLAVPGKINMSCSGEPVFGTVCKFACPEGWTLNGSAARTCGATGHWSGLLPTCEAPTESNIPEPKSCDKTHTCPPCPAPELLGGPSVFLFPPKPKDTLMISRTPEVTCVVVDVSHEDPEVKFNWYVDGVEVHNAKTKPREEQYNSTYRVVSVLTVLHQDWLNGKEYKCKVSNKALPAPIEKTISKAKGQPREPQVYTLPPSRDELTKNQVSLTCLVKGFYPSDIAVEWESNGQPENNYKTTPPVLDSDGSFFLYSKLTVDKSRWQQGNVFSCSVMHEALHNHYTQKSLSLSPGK

With `O=P(O)(O)O[C@H]1[C@H](OP(=O)(O)O)[C@@H](OP(=O)(O)O)[C@H](OP(=O)(O)O)[C@@H](OP(=O)(O)O)[C@H]1OP(=O)(O)O` [InsP6, myo-inositol hexakisphosphate], the “effect in zymosan-induced peritoneal inflammation” value in test [1] (relative to thioglycollate model) was “equally effective”. For the same compound, in the test with peripheral blood PMN, the “number of peripheral blood PMN” value is given as “not modified”. Besides, the “inhibition of PMN accumulation, single subcutaneous injection” value in test [2] (40-100 μmol/kg s.c. 3 min after thioglycollate) is recorded as 46-59%. The “reduction in PMN recovered from the peritoneal cavity” value in test [2] (i.v. at 40 and 80 min, total 80 μmol/kg, PMN at 120 min, 3 experiments) was 58±3%. Moreover, the IC50 in test [3] (BSA-sLe^x competition ELISA) was 0.16 ± 0.04 mM. The “blocking of P-selectin-Ig at reduced Ca^2+” value in test [3] (Ca^2+ reduced to 0.15 mM) was “not enhanced”. Also, in test [4], the “inhibition of E-selectin-Ig binding” value is “failed to inhibit the binding of E-selectin-lg at concentrations up to 5 mM; also recorded: did not block E-selectin-lg binding”.
With `O=S(=O)(O)O[C@H]1[C@H](OS(=O)(=O)O)[C@@H](OS(=O)(=O)O)[C@H](OS(=O)(=O)O)[C@@H](OS(=O)(=O)O)[C@H]1OS(=O)(=O)O` [InsS6, myo-inositol hexakissulfate], the “inhibition of PMN accumulation, zymosan model” value in test [1] (400 μmol/kg, 1 experiment) is 31±11%. For the same compound, the “inhibition of PMN accumulation, thioglycollate model” value in test [2] (400 μmol/kg, 1 experiment) is 33±13%. Besides, in test [3] (BSA-sLe^x competition ELISA), the IC50 amounted to 3.2 ± 0.5 mM. Moreover, the “inhibition of E-selectin-Ig binding” value in test [4] was “failed to inhibit the binding of E-selectin-lg at concentrations up to 5 mM”.
As for `O[C@H]1[C@H](O)[C@@H](O)[C@H](O)[C@@H](O)[C@H]1O` [myo-inositol, reference compound], the “blocking of P-selectin-Ig binding” value in test [3] (BSA-sLe^x competition ELISA) is “not myo-isositol, blocked binding”.
